The record followed here is ChEMBL document CHEMBL4418500, “Methods of preventing or treating atherosclerosis with inhibitors of specific isoenzymes of human neuraminidase” (2018).

Broadly, the inhibition in vivo is the drop in the measured response relative to a control, in per cent. As a reminder, the solubility is the dissolved amount per volume that the medium holds.

In data set [1] the test system is Mus musculus. Briefly: Reduction in size of fatty streaks in aortic root of normal diet fed 12 week old ApoE KO mouse at 30 mg/kg, ip treated for 4 weeks (once every 2 days for first 2 weeks and then every day for third and the fourth weeks) by Oil Red O staining based assay relative to control. It counts as functional.
Data set [2] has as its system Mus musculus. Briefly: Reduction in size of fatty streaks in aortic root of normal diet fed 16 week old ApoE KO mouse at 30 mg/kg, ip treated for 2 weeks (once every 2 days for first week and then every day for second week) by Oil Red O staining based assay relative to control. It is filed as functional.
The test system of data set [3] is Mus musculus. Briefly: Reduction in size of fatty streaks in aortic root of normal diet fed 12 week old ApoE KO mouse at 1 mg/kg, ip treated for 4 weeks (once every 2 days for first 2 weeks and then every day for third and the fourth weeks) by Oil Red O staining based assay relative to control. It is filed as functional.
In data set [4] the target is T1, Sialidase-3 (Homo sapiens) (UniProt Q9UQ49).
T1 sequence (whole entry): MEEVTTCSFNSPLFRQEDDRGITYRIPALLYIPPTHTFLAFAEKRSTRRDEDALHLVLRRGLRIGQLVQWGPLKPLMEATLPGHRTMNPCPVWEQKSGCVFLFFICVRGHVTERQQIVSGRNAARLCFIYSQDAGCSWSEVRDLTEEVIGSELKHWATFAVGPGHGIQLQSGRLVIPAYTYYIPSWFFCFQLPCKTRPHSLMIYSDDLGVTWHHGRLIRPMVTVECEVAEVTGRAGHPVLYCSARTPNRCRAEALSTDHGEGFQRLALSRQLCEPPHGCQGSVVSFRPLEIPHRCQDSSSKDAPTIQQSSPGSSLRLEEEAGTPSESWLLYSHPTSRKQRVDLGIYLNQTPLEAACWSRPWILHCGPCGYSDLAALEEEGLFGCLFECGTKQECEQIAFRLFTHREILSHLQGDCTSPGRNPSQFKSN
As to conditions: 1 mM.

Data set [5] in a line: Toxicity in normal diet fed 12 week old ApoE KO mouse assessed as induction of bleeding at 30 mg/kg, ip treated for 4 weeks (once every 2 days for first 2 weeks and then every day for third and the fourth weeks). It counts as organism-based. As to conditions: in vivo.
Data set [6] can be described thus: Toxicity in normal diet fed 16 week old ApoE KO mouse assessed as effect on behavior at 30 mg/kg, ip treated for 2 weeks (once every 2 days for first week and then every day for second week) by Oil Red O staining based assay relative to control. It is filed as organism-based. As to conditions: in vivo.
Data set [7] deals with Mus musculus. Briefly: Inhibition of neuraminidase-1 activity in normal diet fed ApoE KO mouse at 30 mg/kg, ip treated for 2 weeks (once every 2 days for first week and then every day for second week) by X-Neu5Ac substrate based histochemical assay relative to control. It counts as functional.
Data set [8] in a line: Solubility in water. It counts as physicochemical.
For data set [9], the species on record is Mus musculus. The experiment in a line: Effect on lipid composition in ApoE KO mouse assessed as effect on triglycerides level. It is filed as functional, organism-based.
Data set [10] in a line: Toxicity in normal diet fed 12 week old ApoE KO mouse assessed as effect on body weight at 30 mg/kg, ip treated for 4 weeks (once every 2 days for first 2 weeks and then every day for third and the fourth weeks). As to conditions: in vivo. It is filed as organism-based.
A short description of data set [11]: Toxicity in normal diet fed 16 week old ApoE KO mouse assessed as induction of leukocyte infiltration at 30 mg/kg, ip treated for 2 weeks (once every 2 days for first week and then every day for second week) by Oil Red O staining based assay relative to control. As to conditions: in vivo. It is filed as organism-based.
The species entered for data set [12] is Mus musculus. The experiment in a line: Effect on lipid composition in ApoE KO mouse assessed as effect on HDL-cholesterol level. It is filed as functional, organism-based.
Data set [13] in a line: Toxicity in normal diet fed 12 week old ApoE KO mouse assessed as induction of leukocyte infiltration at 30 mg/kg, ip treated for 4 weeks (once every 2 days for first 2 weeks and then every day for third and the fourth weeks). It counts as organism-based. The settings on record: in vivo.
A short description of data set [14]: Toxicity in normal diet fed 12 week old ApoE KO mouse assessed as induction of cytoplasmic vacuolization at 30 mg/kg, ip treated for 4 weeks (once every 2 days for first 2 weeks and then every day for third and the fourth weeks). It is filed as organism-based. The settings on record: in vivo.
A short description of data set [15]: Toxicity in normal diet fed 12 week old ApoE KO mouse assessed as effect on behavior at 30 mg/kg, ip treated for 4 weeks (once every 2 days for first 2 weeks and then every day for third and the fourth weeks). It is filed as organism-based. As to conditions: in vivo.
In data set [16] the test system is Mus musculus. The experiment in a line: Inhibition of neuraminidase-1 activity in kidney of wild type C57BI6 mouse at 30 mg/kg, ip dosed for 2 consecutive days and measured 17 hrs post last dose by X-Neu5Ac substrate based histochemical assay relative to control. It counts as functional.
For data set [17], the species on record is Mus musculus. The experiment in a line: Effect on lipid composition in ApoE KO mouse assessed as increase in LDL cholesterol relative to control. It counts as functional.
The species entered for data set [18] is Mus musculus. Briefly: Effect on lipid composition in ApoE KO mouse assessed as effect on total cholesterol level. It is filed as functional, organism-based.
The nature of data set [19]: Toxicity in normal diet fed 16 week old ApoE KO mouse assessed as effect on body weight at 30 mg/kg, ip treated for 2 weeks (once every 2 days for first week and then every day for second week) by Oil Red O staining based assay relative to control. It counts as organism-based. The settings on record: in vivo.
Data set [20] is described as follows: Toxicity in normal diet fed 16 week old ApoE KO mouse assessed as induction of bleeding at 30 mg/kg, ip treated for 2 weeks (once every 2 days for first week and then every day for second week) by Oil Red O staining based assay relative to control. It counts as organism-based. As to conditions: in vivo.
A short description of data set [21]: Toxicity in normal diet fed 16 week old ApoE KO mouse assessed as induction of cytoplasmic vacuolation at 30 mg/kg, ip treated for 2 weeks (once every 2 days for first week and then every day for second week) by Oil Red O staining based assay relative to control. It is filed as organism-based. As to conditions: in vivo.
The nature of data set [22]: Toxicity in normal diet fed 12 week old ApoE KO mouse assessed as effect on behavior at 1 mg/kg, ip treated for 4 weeks (once every 2 days for first 2 weeks and then every day for third and the fourth weeks). It counts as organism-based. As to conditions: in vivo.
The nature of data set [23]: Toxicity in normal diet fed 12 week old ApoE KO mouse assessed as induction of bleeding at 1 mg/kg, ip treated for 4 weeks (once every 2 days for first 2 weeks and then every day for third and the fourth weeks). It is filed as organism-based. The settings on record: in vivo.
A short description of data set [24]: Toxicity in normal diet fed 12 week old ApoE KO mouse assessed as effect on body weight at 1 mg/kg, ip treated for 4 weeks (once every 2 days for first 2 weeks and then every day for third and the fourth weeks). It is filed as organism-based. As to conditions: in vivo.
Data set [25] is described as follows: Toxicity in normal diet fed 12 week old ApoE KO mouse assessed as induction of cytoplasmic vacuolization at 1 mg/kg, ip treated for 4 weeks (once every 2 days for first 2 weeks and then every day for third and the fourth weeks). It counts as organism-based. The settings on record: in vivo.
The nature of data set [26]: Toxicity in normal diet fed 12 week old ApoE KO mouse assessed as induction of leukocyte infiltration at 1 mg/kg, ip treated for 4 weeks (once every 2 days for first 2 weeks and then every day for third and the fourth weeks). It is filed as organism-based. The settings on record: in vivo.
The subject of data set [27] is Mus musculus. Briefly: Inhibition of neuraminidase-4 activity in spleen of wild type C57BI6 mouse at 30 mg/kg, ip dosed for 2 consecutive days and measured 17 hrs post last dose by X-Neu5Ac substrate based histochemical assay relative to control. It is filed as functional.
The test system of data set [28] is Mus musculus. The experiment in a line: Inhibition of neuraminidase-3 activity in spleen of wild type C57BI6 mouse at 30 mg/kg, ip dosed for 2 consecutive days and measured 24 hrs post last dose by X-Neu5Ac substrate based histochemical assay relative to control. It counts as functional.

Converted amounts (≈) assume the structure as drawn. The source made the active and inactive calls. No cut-off for these calls is given here. Where only a bound is given, the exact number is not on record here.

Turning to `CCCCC(=O)NC[C@@H](O)[C@@H](O)[C@@H]1OC(C(=O)O)=C[C@H](O)[C@H]1NC(C)=O`, the outcome in the data set on Mus musculus [1] and in the data set with Mus musculus [2] was Active.
In the case of `CC(=O)N[C@H]1[C@H]([C@H](O)[C@H](O)Cn2cc(-c3ccc(-c4ccccc4)cc3)nn2)OC(C(=O)O)=C[C@@H]1NC(=N)N`, in the data set with Mus musculus [3], the result was Active.
Consider `CC(=O)N[C@H]1[C@H]([C@H](O)[C@H](O)CO)OC(C(=O)O)=C[C@@H]1O`, for which the inhibition entry in data set [4] is “Active”.
As to `CC(=O)N[C@H]1[C@H]([C@H](O)[C@H](O)Cn2cc(-c3ccc(-c4ccccc4)cc3)nn2)OC(C(=O)O)=C[C@@H]1O`, in the data set with Mus musculus [3], the outcome was Active.
With `CCCCC(=O)NC[C@@H](O)[C@@H](O)[C@@H]1OC(C(=O)OC)=C[C@H](O)[C@H]1NC(C)=O`, the Activity in the data set with Mus musculus [1] is 25 - 50%; in [5], “Non-Toxic”; in data set [6], “Non-Toxic”; in [10], “Non-Toxic”; in [11], “Non-Toxic”; in data set [13] it was “Non-Toxic”. For the same compound, the Activity result in data set [14] is recorded as “Non-Toxic”; in data set [15] it was “Non-Toxic”; in the data set filed under Mus musculus [17], 50%; in the data set with Mus musculus [2] it was 25%; in data set [19], “Non-Toxic”; in [20], “Non-Toxic”. In addition, the Activity entry in data set [21] is “Non-Toxic”. The figures for the inhibition in vivo at 30 mg/kg with Mus musculus [7] and in the data set with Mus musculus [16] were 70 to 80% and 90%, respectively. Also, the solubility in data set [8] (water, read-out: solubility) was at least 1000 µg/mL. The result in the data set listed under Mus musculus [9], in the data set filed under Mus musculus [12] and in the data set filed under Mus musculus [18] was inactive.
In the case of `COC(=O)C1=C[C@H](NC(=N)N)[C@@H](NC(C)=O)[C@H]([C@H](O)[C@H](O)Cn2cc(-c3ccc(-c4ccccc4)cc3)nn2)O1`, the Activity entry in [22] is given as “Non-Toxic”; with Mus musculus [3], 25 - 50%; in [23], “Non-Toxic”; in data set [24], “Non-Toxic”; in the data set filed under Mus musculus [17] it was 50%; in [25], “Non-Toxic”. Besides, the Activity entry in data set [26] is reported as “Non-Toxic”. Besides, the outcome in the data set filed under Mus musculus [9], in the data set listed under Mus musculus [12] and in the data set listed under Mus musculus [18] was inactive.
In the case of `COC(=O)C1=C[C@H](O)[C@@H](NC(C)=O)[C@H]([C@H](O)[C@H](O)Cn2cc(-c3ccc(-c4ccccc4)cc3)nn2)O1`, the inhibition in vivo at 30 mg/kg in the data set with Mus musculus [27] and with Mus musculus [28] was 70 to 80% in each case. Moreover, the Activity result is recorded as “Non-Toxic” in data set [22]; 25 - 50% in the data set on Mus musculus [3]; “Non-Toxic” in [23]; “Non-Toxic” in data set [24]; “Non-Toxic” in data set [25]; “Non-Toxic” in data set [26]. For the same compound, the solubility in data set [8] (buffer) turned out to be 100 µg/mL (≈ 197 µM).
As to `CCCCC(=O)N[C@H]1[C@H]([C@H](O)[C@H](O)Cc2ccc(-c3ccccc3)cc2)OC(C(=O)O)=C[C@@H]1O`, the outcome with Mus musculus [3] was Active.
Take `CCCCC(=O)N[C@H]1[C@H]([C@H](O)[C@H](O)Cc2ccc(-c3ccccc3)cc2)OC(C(=O)OC)=C[C@@H]1O`: the Activity entry in [22] is listed as “Non-Toxic”; in the data set on Mus musculus [3], 25 - 50%; in [23] it was “Non-Toxic”; in data set [24], “Non-Toxic”; in the data set listed under Mus musculus [17], 50%; in data set [25], “Non-Toxic”. In [26], the Activity entry was “Non-Toxic”. Besides, the solubility in data set [8] (water, read-out: solubility) is at least 10000 µg/mL. Further, the result in the data set filed under Mus musculus [9], in the data set filed under Mus musculus [12] and in the data set filed under Mus musculus [18] was inactive.
